Patent US20250235454A1, “XOPHOS INHIBITORS FOR USE IN THE TREATMENT OF B-CELL LYMPHOMA” (CENTRE NATIONAL DE LA RECHERCHE SCIENTIFIQUE, priority 2022, published 2025)
Each block holds one compound with its values, some of them ahead of it.

How the values were obtained:
[1] = system: human B cell lymphoma cell line (Karpas422, CVCL_1325); assay: IC50 on cell growth, Karpas422 (CellTiter-Fluor Cell Viability Assay); format: cell-based; settings: KARPAS-422, Karpas422, RPMI 1640 (11 mM glucose) with 10% serum, 48 h
Procedure: These experiments have been performed using cells from a human B cell lymphoma cell line (“Karpas422, CVCL_1325”) which have been seeded in “RPMI 1640” medium (11 mM glucose) supplemented with 10% serum, in the presence of increasing concentrations of compounds.
After 48 h of treatment, analyses of the effect on cell growth have been conducted, using the “CellTiter-Fluor Cell Viability Assay” (Promega) live cell detection kit, as in FIG. 2b, and following the supplier's instructions.

[2] = system: RH30, CVCL_0041 rhabdomyosarcoma sarcoma line; assay: Effect on cell growth, paediatric sarcoma line RH30 (CellTiterFluor); format: cell-based, human; settings: 48 h, HLPM medium
Procedure: (§1) Human tumour cells from two paediatric rhabdomyosarcoma-like sarcoma lines (“RD136, CVCL_1649”, FIG. 5a and “RH3O, CVCL_0041”, FIG. 5b) have been seeded in a 96-well plate in the presence of a concentration of 10 μM of compound, in a volume of 100 μL of “Gibco Human Like Plasma Medium” (Gibco HPLM_Thermo Fisher Scientific). The effect of compounds (Ia), (Ib) and (Ic) has been compared with that of the inhibitors IACS-010759 (IACS) and IM156 (metformin analogue) currently in clinical trials, Rotenone (ROT) and the apoptosis inducer staurosporine (STS). After 48 hours of treatment, the effect on the number of living cells has been evaluated using the “CellTiterFluor” kit from Promega, identically to FIG. 2b.
Human tumour cells from the paediatric rhabdomyosarcoma sarcoma line (“RH30, CVCL_0041”) have been seeded in a 96-well plate in the presence of a 10 μM or 25 μM concentration of compound, in a 100 μL volume of “Gibco Human Like Plasma Medium” (Gibco HPLM_Thermo Fisher Scientific). After 48 h of treatment, the effect of compounds (Ia), (Ie) and (If) on cell growth has been evaluated using the Promega “CellTiterFluor” kit as in FIG. 2b.

[3] = system: human B cell lymphoma line (RL line, CVCL_1660); assay: Seahorse analysis of oxygen consumption rate (OCR); format: cell-based; settings: for inhibition of OCR: RL cells; for effect on mitochondrial respiration: increasing concentrations 1.2-10 μM, compared to rotenone or IACS-010759
Procedure: The analyser known as “Seahorse” allows evaluation mitochondrial respiration in real time by measuring Oxygen Consumption Rate (OCR). The experiments have been carried out according to the supplier's recommendations (“Agilent_Seahorse XFe96”). To achieve this, 150,000 cells per well of a human B cell lymphoma line (“RL line, CVCL_1660”) have been seeded in 180 μL of Agilent_Seahorse XF RPMI medium (supplemented with pyruvate and glucose) on a dedicated Agilent_Seahorse 96-well plate, pre-treated with a solution of CellTak according to the supplier's recommendations (Corning). After 30 min incubation in a CO2-free oven, the plate has been analysed with the “Seahorse” using a protocol allowing injection (indicated by arrows in FIG. 1) of increasing amounts of compound to obtain a final cumulative concentration of 1.2 μM, 2.5 μM, 5 μM and 10 μM, followed each time by an OCR reading (in pmol/min) for 10 min. Data normalisation has been carried out by cell counting, using a device known as the “Cytation 1/5 Cell Imaging Multi-Mode reader” (BioTek Instruments, Inc) coupled to the “Seahorse”.
A control is used (DMSO, curve with solid squares) in each figure and corresponds to the medium studied without addition of compound (addition only of the DMSO diluent from the molecule stocks). […] In addition, injection of increasing concentrations of compounds in accordance with the invention induces progressive inhibition of OCR, in a similar manner and in stages for compounds (Ib) and (Ic), and progressively for compound (Ia).

[4] = system: human tumour cells of a B cell lymphoma line (SUDHL-4, CVCL_0539); assay: In ovo xenograft model on the chorioallantoic membrane (CAM) of the chicken embryo; format: in vivo
Text: Preclinical evaluation analyses of the anti-tumour efficacy of compound (Ia) have been carried out using the xenograft model on the chorioallantoic membrane (CAM) of the chicken embryo. […] Treatments have been performed on days E11, E13, E15 and E17. At day E18, the upper CAM portions containing tumours have been removed and weighed, and the lower CAM fragments have been used to evaluate the presence of human cells indicative of metastases by RT-gPCR (polymerase chain reaction from an RNA sample). 0.0097 mg/kg Doxorubicin (DOXO) has been used as a positive control for treatment efficacy, compound (Ia) has been used at 3 different doses: 0.05 mg/kg, [2]: 0.15 mg/kg, and [3]: 0.45 mg/kg, and “IACS-010759” has been used at 2 different doses: 0.05 mg/kg, and [2]: 0.45 mg/kg. The negative control (denoted DMSO) represents treatment with the DMSO molecule diluent.

[5] = system: human B cell lymphoma cell line (Karpas422, CVCL_1325); assay: Effect on cell growth, B cell lymphoma line Karpas422 (live cell count by flow cytometry or CellTiterFluor); format: cell-based; settings: 10 μM, 48 h, RPMI and HLPM medium, FIG. 2
Procedure: Cells from a human B cell lymphoma cell line (“Karpas422, CVCL_1325”) have been seeded at a density of 100,000 cells per well, in a 96-well plate in the presence of a 10 μM concentration of compound, in a volume of 100 μL of medium. After 48 h of treatment, analyses of the effect on cell growth have been conducted, either by counting live cells using flow cytometry (FIG. 2a), or using a biochemical fluorescence detection kit for live cells (FIG. 2b).
In conventional “Gibco RPMI1640/10°/0 SVF” medium, the number of living cells has been determined after double AnnexinV/PI labelling, and analysis using the flow cytometer known as “ATTUNE” (Thermo Fisher Scientific). In “Gibco Human Like Plasma Medium”, the number of live cells has been evaluated using the “CellTiterFluor” kit and after measurement of relative fluorescence units (RFU) according to the supplier's recommendations (Promega). The term DMSO in FIG. 2 corresponds to the control, i.e. identical medium with no added compound.

[6] = system: RD136, CVCL_1649 rhabdomyosarcoma-like sarcoma line; assay: Effect on cell growth, paediatric sarcoma line RD136 (CellTiterFluor); format: cell-based, human; settings: 10 μM, 48 h, HLPM medium, FIG. 5a
Procedure: as §1

[7] = system: human B cell lymphoma cell line (RL, CVCL_1660); assay: Effect on cell growth, B cell lymphoma line RL (live cell count by flow cytometry); format: cell-based; settings: 5 μM or 10 μM, 48 h, RPMI medium, FIG. 6
Procedure: Cells from the human B cell lymphoma cell line (“RL, CVCL_1660”), have been seeded at a density of 100,000 cells per well, in a 96-well plate in the presence of a concentration of 5 μM or 10 μM of compound, in a volume of 100 μL of RPMI medium. After 48 h of treatment, analyses of the effect on cell growth have been conducted by counting live cells using flow cytometry, as in FIG. 2a.

[8] = system: 31 human B and T cell lymphoma lines; assay: AnnexinV/PI cytometry, % apoptotic cells in 31 lymphoma lines; format: cell-based; settings: compared with IACS-010759, FIG. 3
Text: Analyses of the effect on cell growth of compound (Ia) in accordance with the invention in comparison with compound “[…]” (denoted IACS) not in accordance with the invention have been conducted on a wide series of 31 human B and T cell lymphoma lines, after AnnexinV/PI labelling and analysis with the “ATTUNE” cytometer (Thermo Fisher Scientific). In addition to the number of living cells represented in FIG. 2a, this technology enables the % of cells undergoing apoptosis to be evaluated. The results have been represented in FIG. 3 in the form of a “HeatMap” with a black and white gradient, black representing the highest % of apoptotic cells.

[9] = 10 μM cumulative concentration, FIG. 1b
[10] = dose 0.15 mg/kg (compound Ia [2])
[11] = dose 0.45 mg/kg (compound Ia [3], IACS [2])

IC50 [1]: 15.1 µM
SMILES: N/C(=N/c1cccc2ccccc12)SCCCCCCS/C(N)=N\c1cccc2ccccc12 [reference compound]

SMILES: Cl.Cl.c1ccc(N2CCN(CCCCCCCN3CCN(c4ccccn4)CC3)CC2)nc1 [Compound If]
effect on cell growth (number of living cells) ([2]; 10 μM or 25 μM, FIG. 7): inhibit cell growth

SMILES: c1cnc(N2CCN(CCCCCCCN3CCN(c4ncccn4)CC3)CC2)nc1 [Compound Ie]
effect on cell growth (number of living cells) ([2]; 10 μM or 25 μM, FIG. 7): inhibit cell growth

SMILES: C=C(C)[C@H]1Cc2c(ccc3c2O[C@@H]2COc4cc(OC)c(OC)cc4[C@@H]2C3=O)O1 [Rotenone, reference compound]
inhibition of OCR ([3]; 1.2 μM, FIG. 1a): instantaneous and almost complete inhibition of OCR

SMILES: COc1cccc2c1C(=O)c1c(O)c3c(c(O)c1C2=O)C[C@@](O)(C(=O)CO)C[C@@H]3O[C@H]1C[C@H](N)[C@H](O)[C@H](C)O1 [doxorubicin, Doxorubicin, reference compound]
regression in the number of metastases ([4]; 0.0097 mg/kg, lower CAM, RT-qPCR): 99% | reduction in primary tumour volume ([4]; 0.0097 mg/kg, treatments E11, E13, E15, E17, read at E18): 90%

SMILES: Cl.Cl.c1ccc(N2CCN(CCCCCCCCCCCCN3CCN(c4ccccn4)CC3)CC2)nc1 [Compound Ic, 1-(2-pyridyl)-4-[12-[4-(2-pyridyl)piperazin-1-yl]dodecyl]piperazine dihydrochloride]
effect on cell growth (number of living cells) ([2]; 10 μM, FIG. 5b): inhibits cell growth | inhibition of OCR [3, 9]: Virtually complete inhibition of OCR | effect on mitochondrial respiration [3]: moderate and progressive effect | effect on cell growth (number of live tumour cells) [5]: inhibit cell growth | effect on cell growth (number of living cells) [6]: inhibits cell growth

IC50 [1]: 1.5 µM
SMILES: c1cnc(NCCCCCCCCCCCCNC2=NCCN2)nc1 [Compound Ia, N′-(4,5-dihydro-1H-imidazol-2-yl)-N-pyrimidin-2-yl-dodecane-1,12-diamine]
effect on cell growth (number of living cells) ([2]; 10 μM or 25 μM, FIG. 7): inhibit cell growth | effect on cell growth [7]: inhibitory effect on cell growth | reduction in primary tumour volume [4, 10]: 73% | reduction in the relative number of metastases [4, 10]: 70% | reduction in primary tumour volume [4, 11]: 70% | reduction in the relative number of metastases [4, 11]: 72% | reduction in primary tumour volume ([4]; dose [1] 0.05 mg/kg): 48% | reduction in the relative number of metastases ([4]; dose [1] 0.05 mg/kg): 45% | inhibition of OCR [3, 9]: Virtually complete inhibition of OCR | effect on mitochondrial respiration [3]: moderate and progressive effect | toxicity (% of apoptotic cells) [8]: increased with respect to that of “IACS-010759” for a sub-group of 8 lines | effect on cell growth (number of live tumour cells) [5]: inhibit cell growth

SMILES: c1cnc(NCCCCCCCCCCCCNc2ncccn2)nc1 [Compound Id]
effect on cell growth (number of living cells) ([2]; 10 μM, FIG. 5b): inhibits cell growth | effect on cell growth [7]: inhibitory effect on cell growth | effect on cell growth (number of living cells) [6]: inhibits cell growth

SMILES: Cl.Cl.c1cnc(N2CCN(CCCCCCCCCCCCN3CCN(c4ncccn4)CC3)CC2)nc1 [Compound Ib, 2-[4-[12-(4-pyrimidin-2-ylpiperazin-1-yl)dodecyl]piperazin-1-yl]pyrimidine dihydrochloride]
effect on cell growth (number of living cells) ([2]; 10 μM, FIG. 5b): inhibits cell growth | inhibition of OCR [3, 9]: Virtually complete inhibition of OCR | effect on mitochondrial respiration [3]: moderate and progressive effect | effect on cell growth (number of live tumour cells) [5]: inhibit cell growth | effect on cell growth (number of living cells) [6]: inhibits cell growth
